Assay results: the supplement of paper PMC11451515

System: NOMO1
Experiment: cell viability relative to DMSO control; higher = less cytotoxic
Settings: 48 h
Procedure, shortened: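 NOMO1, SEM and P12-Ichikawa leukemia cells spent at least four passages adapting to each medium before use. They were seeded at 500 cells/well (NOMO1, SEM) or 1000 cells/well (P12-Ichikawa) in 5 μl in 1536-well plates and pin-dosed with library compounds in DMSO at 11 threefold steps from 47 μM down to 0.79 nM. After 48 h at 37°C, CellTiter-Glo One luminescence was read. Viability is reported as a percentage of the DMSO wells on each plate, with cell-free wells as background.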

[1] = HPLM + 10% dialyzed FBS, 0.000781 µM
[2] = HPLM + 10% dialyzed FBS, 0.00234 µM
[3] = HPLM + 10% dialyzed FBS, 0.00702 µM
[4] = HPLM + 10% dialyzed FBS, 0.0211 µM
[5] = HPLM + 10% dialyzed FBS, 0.0632 µM
[6] = HPLM + 10% dialyzed FBS, 0.19 µM
[7] = HPLM + 10% dialyzed FBS, 0.569 µM
[8] = HPLM + 10% dialyzed FBS, 1.71 µM
[9] = HPLM + 10% dialyzed FBS, 5.12 µM
[10] = HPLM + 10% dialyzed FBS, 15.4 µM
[11] = HPLM + 10% dialyzed FBS, 46.1 µM
[12] = RPMI 5 mM glucose + 10% FBS, 0.000781 µM
[13] = RPMI 5 mM glucose + 10% FBS, 0.00234 µM
[14] = RPMI 5 mM glucose + 10% FBS, 0.00702 µM
[15] = RPMI 5 mM glucose + 10% FBS, 0.0211 µM
[16] = RPMI 5 mM glucose + 10% FBS, 0.0632 µM
[17] = RPMI 5 mM glucose + 10% FBS, 0.19 µM
[18] = RPMI 5 mM glucose + 10% FBS, 0.569 µM
[19] = RPMI 5 mM glucose + 10% FBS, 1.71 µM
[20] = RPMI 5 mM glucose + 10% FBS, 5.12 µM
[21] = RPMI 5 mM glucose + 10% FBS, 15.4 µM
[22] = RPMI 5 mM glucose + 10% FBS, 46.1 µM
[23] = RPMI 5 mM glucose + 10% dialyzed FBS, 0.000781 µM
[24] = RPMI 5 mM glucose + 10% dialyzed FBS, 0.00234 µM
[25] = RPMI 5 mM glucose + 10% dialyzed FBS, 0.00702 µM
[26] = RPMI 5 mM glucose + 10% dialyzed FBS, 0.0211 µM
[27] = RPMI 5 mM glucose + 10% dialyzed FBS, 0.0632 µM
[28] = RPMI 5 mM glucose + 10% dialyzed FBS, 0.19 µM
[29] = RPMI 5 mM glucose + 10% dialyzed FBS, 0.569 µM
[30] = RPMI 5 mM glucose + 10% dialyzed FBS, 1.71 µM
[31] = RPMI 5 mM glucose + 10% dialyzed FBS, 5.12 µM
[32] = RPMI 5 mM glucose + 10% dialyzed FBS, 15.4 µM
[33] = RPMI 5 mM glucose + 10% dialyzed FBS, 46.1 µM

Row | Structure (SMILES) | cell viability [1] [%] | cell viability [2] [%] | cell viability [3] [%] | cell viability [4] [%] | cell viability [5] [%] | cell viability [6] [%] | cell viability [7] [%] | cell viability [8] [%] | cell viability [9] [%] | cell viability [10] [%] | cell viability [11] [%] | cell viability [12] [%] | cell viability [13] [%] | cell viability [14] [%] | cell viability [15] [%] | cell viability [16] [%] | cell viability [17] [%] | cell viability [18] [%] | cell viability [19] [%] | cell viability [20] [%] | cell viability [21] [%] | cell viability [22] [%] | cell viability [23] [%] | cell viability [24] [%] | cell viability [25] [%] | cell viability [26] [%] | cell viability [27] [%] | cell viability [28] [%] | cell viability [29] [%] | cell viability [30] [%] | cell viability [31] [%] | cell viability [32] [%] | cell viability [33] [%]
1 | CCCc1nc2c(C)cc(-c3nc4ccccc4n3C)cc2n1Cc1ccc(-c2ccccc2C(=O)O)cc1 | 117 | 102 | 112 | 110 | 139 | 140 | 136 | 138 | 127 | 134 | 134 | 123 | 123 | 139 | 126 | 150 | 144 | 131 | 143 | 150 | 145 | 132 | – | – | – | – | – | – | – | – | – | – | –
2 | CO[C@@H]1[C@@H](OC(N)=O)[C@@H](O)[C@H](OC2=CC=C3\C(=C(NC(=O)C4=CC=C([O-])C(=C4)CC=C(C)C)/C(=O)OC3=C2C)O)OC1(C)C | 110 | 111 | 122 | 114 | 109 | 120 | 101 | 91.9 | 93.2 | 87 | 31.8 | 91.4 | 101 | 96.6 | 98.1 | 111 | 102 | 116 | 110 | 101 | 86.6 | 26.2 | 114 | 118 | 116 | 118 | 113 | 97.5 | 117 | 120 | 88.5 | 83.9 | 35.9
3 | FC1=CC=C(CN2\C=C/C=C(/C(=O)N[C@@H](COC3=CC4=C(NC(=O)N4)C=C3)C5=CC=CC=C5)C2=O)C=C1F | 86.7 | 91.5 | 97 | 111 | 103 | 109 | 97.6 | 82.8 | 64.6 | 53.8 | 43.5 | 77.8 | 80.1 | 88.4 | 79.9 | 82.8 | 96.6 | 85.8 | 86.8 | 69.2 | 60.3 | 45.9 | 88.7 | 86.8 | 97.7 | 82.8 | 84.4 | 89.5 | 82.3 | 73.9 | 63.3 | 57.6 | 44.3
4 | O=C(NCCCNc1nc(Nc2cccc(NC(=O)N3CCCC3)c2)ncc1I)c1cccs1 | 81.8 | 91 | 88.4 | 79.3 | 80.9 | 72 | 91.5 | 51.5 | 67.9 | 84.3 | 78.7 | 80.4 | 89.7 | 78 | 81.5 | 76.1 | 76.9 | 80 | 65.9 | 77 | 83.1 | 89.9 | 89.1 | 89.2 | 89.3 | 75 | 84.6 | 84.4 | 80 | 59.1 | 83.1 | 75.7 | 76.9
